Measurements taken from patent US20060205822A1, “1-Aminocyclohexane derivatives for the treatment of multiple sclerosis, emotional lability and pseudobulbar affect” (Forest Laboratories, Inc., priority 2004, published 2006).

How the values were obtained:
[1] = system: NMDA receptor; settings: noncompetitive antagonist; cited from earlier work
[2] = system: adult rats; settings: cited from earlier work
[3] = system: thermal hyperalgesia and mechanical allodynia; settings: relatively high doses; without obvious effects on motor reflexes; cited from earlier work
[4] = system: acquired pendular nystagmus; settings: physical symptom of multiple sclerosis; cited from earlier work
[5] = system: spastic hind limbs of EAE mice; experiment: Spasticity (resistance to hindlimb flexion against a strain gauge) in the EAE model in mice; assay type: in vivo, ABH mice; design: Resistance to flexion, Diff of Means: unit not given here
Description: Induction of EAE. Induction of EAE in animal models is well known in the art. (Raine, Chapter 16, Handbook of Clinical Neurology, vol. 3(47): Demyelinating Diseases, Koetsier, ed., (Elsevier Science Publishers 1985). In the present protocol, 6-8 week ABH mice are immunized with mouse spinal cord homogenate in Freund's complete adjuvant on day 0 & 7. (Baker et al. 1990. J. Neuroimmunol 28:261 O'Neill et al 1992. J. Neuroimmunol. 38:53). Animals will develop relapsing remitting episodes of paralysis at approximately 3-4 week intervals. These will be monitored daily from day 11 onwards to ensure severity levels of paralysis and maintained with humane limits according to the Home Office, Animals (Scientific Procedures) Act […]. Spasticity (stiff hind limbs) after 2-3 relapse episodes (approximately 80-120 days post-induction) will be allowed to develop. Animals with visually spastic limbs will be selected for assessment of the TEST compound.
Resistance to flexion against a strain gauge will be the primary assessment (Baker et al. 2000. Nature), secondary outcome measures will be the presence or absence of spastic tails.
Spasticity. The “stiffness” of spastic limbs is measured using a purpose built strain gauge, and assessed by the resistance force against hindlimb flexion. The limb is extended manually twice prior to measurement of each limb. Limbs showing severe crossing or flexion will not be analyzed. The signal is amplified and digitized using DAS16 card (Amplicon, Brighton UK.) and acquired using Dacquire V10 software and analyzed using Spike 2 software (Baker et al 2000). Left and right hindlimbs are analyzed alternately and typically 5-8 readings per limb were measured at each time point. The mean values will be calculated and converted to forces in Newtons. Data will be analyzed using one-way repeated measures analysis of variance (ANOVA) incorporating Student-Newman-Keuls posthoc test. Differences to baseline will also be compared using Paired t tests.
Administration of compound. The TEST compounds are dissolved in vehicle (to be supplied by the SPONSOR-preferably this will be a saline solution) using doses (to be supplied by the SPONSOR). These will be delivered by the intravenous, intraperitoneal or oral route (to be supplied by the sponsor). Resistance to flexion will be assessed at 10 minutes 30 minutes and 60 minutes following intravenous, intraperitoneal injection, 30, 60 and 90 minutes after oral administration. (Escalating doses (up to three) may be used in the same cohort of animals following wash-out to allow for direct comparison of the dose response).

In the case of `CC12CC3CC(C)(C1)CC(N)(C3)C2` [Memantine, 1-amino-3,5-dimethyl adamantane], the “Affinity for the NMDA receptor” value [1] is listed as “moderate affinity”, the “Formation of hippocampal long-term potentiation” value [2] is listed as “enhance the formation of hippocampal long-term potentiation” and the Spatial memory abilities [2] is listed as “improve spatial memory abilities”. For the same molecule, the “Thermal hyperalgesia and mechanical allodynia” value [3] was “selectively block thermal hyperalgesia and mechanical allodynia” and the “Treatment of acquired pendular nystagmus” value [4] was “effective”.
For `CC1(C)CC(C)(C)CC(C)(N)C1` [Neramexane, 1-amino-1,3,3,5,5-pentamethylcyclohexane], the “Resistance to flexion, Diff of Means” value ([5]; 3.1 mg/kg, 0 min vs. 10 min, P<0.001) was 0.171, the “Resistance to flexion, Diff of Means” value ([5]; 3.1 mg/kg, 0 min vs. 30 min, P<0.001) was 0.142 and the “Resistance to flexion, Diff of Means” value ([5]; 3.1 mg/kg, 0 min vs. 60 min, P<0.001) was 0.218. The “Resistance to flexion, Mean” value ([5]; 3.1 mg/kg, 10 min post-injection, baseline 0 min 0.593, N=13) was 0.422 N, the “Resistance to flexion, Diff of Means” value ([5]; 3.1 mg/kg, 10 min vs. 60 min, P 0.228, Do Not Test) was 0.0474 and the “Resistance to flexion, Mean” value ([5]; 3.1 mg/kg, 30 min post-injection, baseline 0 min 0.593, N=13) was 0.451 N. The “Resistance to flexion, Diff of Means” value ([5]; 3.1 mg/kg, 30 min vs. 10 min, P 0.453, Do Not Test) was 0.0293, the “Resistance to flexion, Diff of Means” value ([5]; 3.1 mg/kg, 30 min vs. 60 min, P 0.130, not significant) was 0.0767 and the “Resistance to flexion, Mean” value ([5]; 3.1 mg/kg, 60 min post-injection, baseline 0 min 0.593, N=13) was 0.374 N. For the same molecule, the “Resistance to flexion, Diff of Means” value ([5]; 6.2 mg/kg, 0 min vs. 10 min, P 0.999, not significant) was 0.0000691, the “Resistance to flexion, Diff of Means” value ([5]; 6.2 mg/kg, 0 min vs. 30 min, P 0.013) was 0.117 and the “Resistance to flexion, Diff of Means” value ([5]; 6.2 mg/kg, 0 min vs. 60 min, P<0.001) was 0.172. For the same molecule, the “Resistance to flexion, Mean” value ([5]; 6.2 mg/kg, 10 min post-injection, baseline 0 min 0.567, N=11) was 0.567 N, the “Resistance to flexion, Diff of Means” value ([5]; 6.2 mg/kg, 10 min vs. 30 min, P 0.005) was 0.117 and the “Resistance to flexion, Diff of Means” value ([5]; 6.2 mg/kg, 10 min vs. 60 min, P<0.001) was 0.172. The “Resistance to flexion, Mean” value ([5]; 6.2 mg/kg, 30 min post-injection, baseline 0 min 0.567, N=11) was 0.450 N, the “Resistance to flexion, Diff of Means” value ([5]; 6.2 mg/kg, 30 min vs. 60 min, P 0.162, not significant) was 0.0549 and the “Resistance to flexion, Mean” value ([5]; 6.2 mg/kg, 60 min post-injection, baseline 0 min 0.567, N=11) was 0.395 N. The “Resistance to flexion, Diff of Means” value ([5]; 12.3 mg/kg, 0 min vs. 10 min, P<0.001) was 0.114, the “Resistance to flexion, Diff of Means” value ([5]; 12.3 mg/kg, 0 min vs. 30 min, P<0.001) was 0.103 and the “Resistance to flexion, Diff of Means” value ([5]; 12.3 mg/kg, 0 min vs. 60 min, P<0.001) was 0.189. The “Resistance to flexion, Mean” value ([5]; 12.3 mg/kg, 10 min post-injection, baseline 0 min 0.453, N=14) was 0.339 N, the “Resistance to flexion, Diff of Means” value ([5]; 12.3 mg/kg, 10 min vs. 60 min, P 0.007) was 0.0757 and the “Resistance to flexion, Mean” value ([5]; 12.3 mg/kg, 30 min post-injection, baseline 0 min 0.453, N=14) was 0.350 N. The “Resistance to flexion, Diff of Means” value ([5]; 12.3 mg/kg, 30 min vs. 10 min, P 0.693, not significant) was 0.0106, the “Resistance to flexion, Diff of Means” value ([5]; 12.3 mg/kg, 30 min vs. 60 min, P 0.007) was 0.0863 and the “Resistance to flexion, Mean” value ([5]; 12.3 mg/kg, 60 min post-injection, baseline 0 min 0.453, N=14) was 0.263 N. For the same molecule, the “Level of hind limb spasticity” value ([5]; all 3 doses (3.1, 6.2, 12.3 mg/kg), affected EAE mice) was “reduced the level of hind limb spasticity”, the “Affinity for the NMDA receptor” value [1] was “moderate affinity” and the “Thermal hyperalgesia and mechanical allodynia” value [3] was “selectively block thermal hyperalgesia and mechanical allodynia”.
